Source: USRE44962E1, “Genetically engineered plant cells and plants exhibiting resistance to glutamine synthetase inhibitors, DNA fragments and recombinants for use in the production of said cells and plants” (Bayer Cropscience N.V., priority 1986, dated 2014)

What was measured:
S. lividans = format: cell-based
E. coli W3110 = assay: Growth of E. coli W3110 on M9 medium containing Bialaphos; format: cell-based; conditions: for resistance of pBG93/W3110 to Bialaphos: M9 medium
PPT acetyl transferase = PPT acetyl transferase (Streptomyces hygroscopicus, UniProt P16426); format: biochemical, S. hygroscopicus ATCC 21 705; conditions: S. hygroscopicus derivates; S. lividans carrying pBG20 or pBG16
Phytophtora infestans = format: in vivo; conditions: sfr potato plants sprayed at 8 l/ha once symptoms visible, read two weeks later
[1] = tested on: glutamine synthetase (GS); conditions: cited from earlier work

Chain of PPT acetyl transferase (P16426 whole entry): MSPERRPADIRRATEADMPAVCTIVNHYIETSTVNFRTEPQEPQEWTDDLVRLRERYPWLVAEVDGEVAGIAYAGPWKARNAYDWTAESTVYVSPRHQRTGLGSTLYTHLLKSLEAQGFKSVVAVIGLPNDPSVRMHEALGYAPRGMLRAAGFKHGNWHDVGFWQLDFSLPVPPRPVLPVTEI

**Q.** Which “growth of transformants containing pBG20” value (S. lividans; S. lividans with pBG20, medium containing 500 μg/ml Bialaphos) does the source give for CC(NC(=O)C(C)NC(=O)C(N)CCP(C)(=O)O)C(=O)O (stereo not shown) [Bialaphos] here?
**A.** The value was “not noticeably inhibited”.

**Q.** And the “Bialaphos concentration at which S. lividans growth is normally inhibited” value (S. lividans; untransformed S. lividans, minimal medium)?
**A.** Its value is 1 µg/mL.

**Q.** What about the “growth of W3110 host devoid of pBG93” value (E. coli W3110; M9 medium containing 5 μg/ml Bialaphos) of the same molecule?
**A.** The value was “did not grow”.

**Q.** What about the “resistance of pBG93/W3110 to Bialaphos” value (E. coli W3110; in the presence of IPTG (0.5 mM)) of the same molecule?
**A.** Its value is 50 μg/ml.

**Q.** And the “resistance of pBG93/W3110 to Bialaphos” value (E. coli W3110; without IPTG)?
**A.** Its value is 5 μg/ml.

**Q.** What about the “acetylation by the PPT acetyl transferase activity” value (PPT acetyl transferase) of the same molecule?
**A.** The value was “does not acetylate”.

**Q.** What about the “growth of the fungus on treated plants” value (Phytophtora infestans) of the same molecule?
**A.** The value was “stopped”.

**Q.** Which “inhibition of glutamine synthetase (GS)” value [1] does the source give for CC(=O)NC(CCP(C)(=O)O)C(=O)O (stereo not shown) [N-acetyl PPT] here?
**A.** Its value is “not an inhibitor”.

**Q.** With CP(=O)(O)CCC(N)C(=O)O (stereo not shown) [PPT, phosphinothricin] as the molecule, how does the “acetylation by the PPT acetyl transferase activity” value (PPT acetyl transferase) read?
**A.** Its value is “could acetylate”.

**Q.** And the “inhibition of glutamine synthetase (GS)” value [1]?
**A.** Its value is “inhibits”.
